For the data set, the system named is three-dimensional skin model (EPI-212SIT). Briefly: Irritation test using three-dimensional skin model, MTT relative viability (Test Example 1-5). The data set is classed as cell-based. Conditions: 60 min exposure, 42 h post-incubation, 0.5 and 1.0 mass % pitavastatin calcium, powder. Here is the method:
The following <5-A> to <5-G> were used as test materials to perform exposure of the epidermis to the test materials and irritation evaluation in the following manner in accordance with OECD TG439 (In Vitro skin irritation test) using a kit for skin irritation test approved by OECD (EPI-212SIT manufactured by KURABO).
The epidermis in the kit was pre-incubated overnight, and then 30 μL of the test material was added to the stratum corneum side of the epidermis, and a nylon mesh was placed with tweezers to expose the stratum corneum to the test material. When the test material was solid (<5-E> described below), 25 μL of DPBS was added to the stratum corneum, and immediately after that, 25 mg of the solid material was added to the stratum corneum to expose the stratum corneum to the test material. After 60 minutes, the test material was completely removed by washing. Then, post-incubation was performed for 42 hours. In the process of the post-incubation, a culture medium was replaced once after a lapse of 24 hours. After the post-incubation, a reaction with an MTT solution was performed for 3 hours using an MTT assay kit (MTT-100-JP manufactured by KURABO), and a formazan dye produced by mitochondrial metabolism was extracted to measure the OD value. Based on the measurement result, relative viability was calculated by comparison with a negative control (<5-G> described below).

Results on one compound are retold here after patent US10258694B2, “Skin external preparation and skin irritation-reducing method” (priority 2014, dated 2019).

Each structure is given as a SMILES string.

Turning to `O=C([O-])C[C@H](O)C[C@H](O)/C=C/c1c(C2CC2)nc2ccccc2c1-c1ccc(F)cc1.O=C([O-])C[C@H](O)C[C@H](O)/C=C/c1c(C2CC2)nc2ccccc2c1-c1ccc(F)cc1.[Ca+2]` [pitavastatin calcium], the “relative viability (vs negative control DPBS)” value is on record as “reduced in a manner dependent on the concentration”.
